# Data reported in US20130116241A1, “NOVEL INHIBITOR COMPOUNDS OF PHOSPHODIESTERASE TYPE 10A” (AbbVie Inc., priority 2011, published 2013).
# Structures can show the parent of a compound that is named as a salt.
# Columns and labels:
# rats [1] = details: cited from earlier work
# rats [2] = details: cited from earlier work; remark: listed apart in the source
# rats [3] = details: rat, in vivo; cited from earlier work
# human PDE10A = human PDE10A (UniProt Q9Y233); assay: Measurement of PDE activity (recombinant enzyme, HTRF cAMP kit); type: biochemical; details: Table 1, substrate 20 nM for PDE10, 60 minutes at 29 C, read-out: IC50
# Outline: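 Recombinant human PDE10A (10–250 pM range across PDEs) with 20 nM cAMP substrate in 20 mM Tris-HCl pH 7.5, 10 mM MgCl2, 0.1% BSA, compound pre-mixed with enzyme. Ran 60 min at 29 °C. Remaining cAMP read by HTRF, converted to % of uninhibited activity, and IC50 fitted.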
# Sequence of human PDE10A (Q9Y233 290-1055 limits assumed): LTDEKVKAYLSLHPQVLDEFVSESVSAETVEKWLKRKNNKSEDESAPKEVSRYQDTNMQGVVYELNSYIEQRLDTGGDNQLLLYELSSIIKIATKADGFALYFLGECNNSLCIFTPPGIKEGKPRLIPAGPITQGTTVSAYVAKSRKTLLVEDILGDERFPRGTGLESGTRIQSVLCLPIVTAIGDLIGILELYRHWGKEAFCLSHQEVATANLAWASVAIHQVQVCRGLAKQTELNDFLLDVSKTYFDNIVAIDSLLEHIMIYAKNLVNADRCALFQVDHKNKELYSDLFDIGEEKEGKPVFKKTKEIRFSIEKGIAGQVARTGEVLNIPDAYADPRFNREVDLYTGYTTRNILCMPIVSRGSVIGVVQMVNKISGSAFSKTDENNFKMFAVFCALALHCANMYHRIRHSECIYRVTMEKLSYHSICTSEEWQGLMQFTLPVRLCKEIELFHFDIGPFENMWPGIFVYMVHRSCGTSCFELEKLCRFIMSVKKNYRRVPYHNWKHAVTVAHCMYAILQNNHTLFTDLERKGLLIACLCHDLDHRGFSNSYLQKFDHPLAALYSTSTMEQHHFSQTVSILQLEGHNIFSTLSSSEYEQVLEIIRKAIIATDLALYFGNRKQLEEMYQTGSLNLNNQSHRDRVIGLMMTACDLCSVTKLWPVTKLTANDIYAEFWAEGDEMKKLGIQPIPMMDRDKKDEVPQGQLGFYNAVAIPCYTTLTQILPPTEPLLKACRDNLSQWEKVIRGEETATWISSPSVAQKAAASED
Compound,IC50 (human PDE10A) [µM],other results
"COc1ccc(Cc2nccc3cc(OC)c(OC)cc23)cc1OC [Papaverine, papaverine]",,hyperactivity induced by PCP (rats [1]): reduced hyperactivity; catalepsy on its own (rats [2]; compound alone): did not cause catalepsy on its own; cataleptic effect of the D2 receptor antagonist haloperidol (rats [2]; with haloperidol): potentiated the cataleptic effect; reduction of amphetamine-induced hyperactivity (rats [3]): insignificant
"N#CC1CCN(c2cccc3ccn([C@@H]4C[C@H]4c4ccc5ccccc5n4)c(=O)c23)CC1 (relative stereo) [Example 247, anti 1-(1-oxo-2-(2-(quinolin-2-yl)cyclopropyl)-1,2-dihydroisoquinolin-8-yl)piperidine-4-carbonitrile]",< 0.1,
"O=c1c2c(NC3CCNCC3)cccc2cnn1CCc1cn2ccccc2n1 [compound 388, dihydrochloride]",< 0.1,

# The next lines start with results.
IC50 (human PDE10A) [µM],Compound,other results
< 0.1,"Cn1cnc(-c2nn(CCc3cn4ccccc4n3)c(=O)c3c(-c4ccncc4)csc23)c1 [compound 302, 5-[2-(imidazo[1,2-a]pyridin-2-yl)ethyl]-7-(1-methyl-1H-imidazol-4-yl)-3-(pyridin-4-yl)thieno[2,3-d]pyridazin-4(5H)-one]",
< 0.1,"O=c1c2c(N3CC4COCC4C3)cccc2ccn1C1CC1c1ccc2ccccc2n1 (single isomer, unassigned) [Example 259, anti (−) 8-(dihydro-1H-furo[3,4-c]pyrrol-5(3H,6H,6aH)-yl)-2-(2-(quinolin-2-yl)cyclopropyl)isoquinolin-1(2H)-one]",
